Settings: 323.21 K, Fluid (supercritical or subcritical phases), Vibrating tube method

FC(F)=C(F)C(F)(F)F [hexafluoropropene]
Settings | mass density [kg/m3]
17.7 kPa | 0.97
21.7 kPa | 1.12
25.1 kPa | 1.38
28.9 kPa | 1.62
32.8 kPa | 1.83
36.6 kPa | 2.07
40.3 kPa | 2.22
44.1 kPa | 2.51
47.8 kPa | 2.68
51.6 kPa | 2.99
55.2 kPa | 3.08
58.9 kPa | 3.32
62.6 kPa | 3.51
66.1 kPa | 3.74
69.7 kPa | 3.92
73.2 kPa | 4.09
76.7 kPa | 4.26
80.2 kPa | 4.49
83.7 kPa | 4.72
87.1 kPa | 4.86
90.6 kPa | 5.07
94.4 kPa | 5.41
98.1 kPa | 5.54
101.5 kPa | 5.74
105.2 kPa | 6.02
112.5 kPa | 6.44
116.2 kPa | 6.58
119.7 kPa | 6.8
123.2 kPa | 7
126.7 kPa | 7.23
130.2 kPa | 7.42
133.8 kPa | 7.66
137.6 kPa | 7.92
141.6 kPa | 8.08
145.4 kPa | 8.32
149.3 kPa | 8.52
153.2 kPa | 8.77
157.1 kPa | 8.98
160.9 kPa | 9.22
164.8 kPa | 9.47
168.8 kPa | 9.71
172.6 kPa | 9.88
176.5 kPa | 10.13
180.3 kPa | 10.38
184.3 kPa | 10.62
188.1 kPa | 10.76
195.8 kPa | 11.28
199.7 kPa | 11.49
203.6 kPa | 11.86
207.4 kPa | 12.01
211.1 kPa | 12.24
215 kPa | 12.39
218.8 kPa | 12.6
222.7 kPa | 12.84
226.4 kPa | 13.16
230.2 kPa | 13.39
233.8 kPa | 13.5
237.7 kPa | 13.84
241.4 kPa | 14.08
245.2 kPa | 14.29
249 kPa | 14.46
252.7 kPa | 14.72
260.3 kPa | 15.25
268.1 kPa | 15.67
272.2 kPa | 15.98
276.4 kPa | 16.15
280.6 kPa | 16.35
284.7 kPa | 16.67
288.7 kPa | 16.87
292.9 kPa | 17.17
297.1 kPa | 17.47
301.3 kPa | 17.8
305.4 kPa | 17.98
309.6 kPa | 18.21
313.9 kPa | 18.45
318 kPa | 18.81
322 kPa | 19
326.2 kPa | 19.25
330.3 kPa | 19.52
334.5 kPa | 19.75
338.7 kPa | 20.05
342.9 kPa | 20.26
347 kPa | 20.58
351.2 kPa | 20.86
355.4 kPa | 21.13
359.5 kPa | 21.34
363.6 kPa | 21.63
367.7 kPa | 21.82
371.9 kPa | 22.12
376 kPa | 22.33
380 kPa | 22.69
384.1 kPa | 22.94
388.2 kPa | 23.18
392.3 kPa | 23.49
396.4 kPa | 23.69
404.4 kPa | 24.26
408.5 kPa | 24.53
412.5 kPa | 24.78
416.5 kPa | 25
420.6 kPa | 25.28
424.6 kPa | 25.54
432.5 kPa | 26.08
436.6 kPa | 26.31
444.4 kPa | 26.88
448.4 kPa | 27.13
487.5 kPa | 29.75
499 kPa | 30.39
510.4 kPa | 31.18
521.8 kPa | 31.98
533.3 kPa | 32.74
544.4 kPa | 33.53
555.6 kPa | 34.31
566.8 kPa | 35.09
577.8 kPa | 35.78
588.8 kPa | 36.55
599.7 kPa | 37.33
610.7 kPa | 38.21
621.5 kPa | 38.96
632.3 kPa | 39.67
643 kPa | 40.4
653.8 kPa | 41.25
664.3 kPa | 42.12
675 kPa | 42.78
687.2 kPa | 43.61
697.7 kPa | 44.47
708.1 kPa | 45.16
721.9 kPa | 46.18
735.5 kPa | 47.22
747.6 kPa | 48.18
759.6 kPa | 49.01
769.7 kPa | 49.86
784.6 kPa | 50.99
799.5 kPa | 52.13
814.1 kPa | 53.28

— the NIST ThermoML archive (doi:10.1021/je900596d)
